# Laboratory results published in patent publication US20190321302A1, “PRESERVATION OF MICROORGANISMS” (Yun NV, priority 2016, published 2019).
# Where two headings read alike, the source gives them in different places.
# How the values were obtained:
# [1] = at 25° C.; cited from earlier work
# probiotic capsules = settings: for % survival: 3 months cold storage, relative to Blanc; for CFU/g: capsules 15% in basic cream pH 4.5, 3 months cold storage
# Procedure: A basic cream without preservatives/perfume was used as basis for further tests. The preservative tested was Sorbic acid (2,4 hexadienoic acid), an organic acid with pKa 4.76 at 25° C. at different concentrations. The pH of the cream for all the tested conditions was adjusted to 4.5 using HCl/NaOH.
# The probiotic capsules are suspended 15% (m/) in the cream base with the different preservative concentrations. To simulate release of the probiotics in vivo, the use of a Citric acid buffer was used in vitro. The citric acid will dissolve the membrane of the capsule and hereby release the probiotics inside the capsule. CA buffer was made by dissolving 31.2 g Na2HPo4 & 1.25 g Citric acid in 971.54 g Sterile water. The Final solution is isotonic with a pH of 7.4±0.2.
# The sample creams are sampled in duplo after which it is dissolved in CA-buffer. A further 1/10 dilution series is made and 0.1 ml is spread on MRS agar plates using the ‘copacabana spread plating method’ with 5 glass beads diameter 4 mm. Plating happens in duplo and results (after 3 days incubation 37° C.) are calculated as CFU/ gram cream. Storage happens at 4° C. & 25° C. Sampling happens after 1-2-3 months.
# [2] = test system: E. coli (DSM 1576), Ps. Aeruginosa (DSM 1128), C. albicans (DSM 1386), St. aureus (DSM 799), As. Niger (DSM 1988); settings: base cream without capsules, pH 4.5, 4 weeks, concentrations as low as 0.1%
# Procedure: This was proven by conducting a challenge test on the cream (without the probiotic capsules) with the different preservative concentrations, according to the European Pharmacopeia (5.1.3).
# Challenge tests are used to determine the efficacy of the antimicrobial conservation system for dermatological products. […] Sorbic acid was tested in concentrations : 0.5%-0.3%-0.1%-0% (Control).
# The challenged organisms were E. coli (DSM 1576), Ps. Aeruginosa (DSM 1128), C. albicans (DSM 1386), St. aureus (DSM 799), As. Niger (DSM 1988).
# Addition of the challenged organisms (in 100 gram product) happens at 10^6 CFU/ML. Sampling happens after 6 hours, 24 hours, 7-14 & 28 days. A challenge test is successful if at least a 3 log reduction is visible after 7 days for the bacteria and a 2 log reduction for the yeasts/molds after 14 days—3 log after 4 weeks. Results shown are after 4 weeks of sampling.
smiles,measurement,setting,value
"CC=CC=CC(=O)O [Sorbic acid, 2,4 hexadienoic acid]",pKa,[1],4.76
same,% survival,probiotic capsules; sorbic acid 0.03 %,68%
same,CFU/g,probiotic capsules; sorbic acid 0.03 %,6.E+07 CFU/g
same,% survival,probiotic capsules; sorbic acid 0.1 %,79%
same,CFU/g,probiotic capsules; sorbic acid 0.1 %,7.E+07 CFU/g
same,% survival,probiotic capsules; sorbic acid 0.3 %,76%
same,CFU/g,probiotic capsules; sorbic acid 0.3 %,7.E+07 CFU/g
same,preservative effect in challenge test,[2],good preservative effect
